Source: patent US8653261B2, “Modified actinomycin-based nucleic acid stains and methods of their use” (priority 2008, dated 2014)

What was measured:
HeLa cells = experiment: High content imaging of stained HeLa cells with valinomycin treatment; type: cell-based; conditions: for killing of HeLa cells: 24 hours
Method: HeLa cells were either untreated or treated with two concentrations (15 μM and 120 μM) of valinomycin (VLM) as a killing agent for 24 hours before labeling with Compound 7 and with the nuclear counterstain Hoechst 33342 dye (Invitrogen Corporation, Carlsbad, Calif.). At 24 hours of treatment, normal cell growth medium containing 2× final concentration of Hoechst 33342 and Compound 7 was added to the existing medium to result in 1× final concentration. Cells were incubated for 30 minutes at 37° C. and then the drug/dye mixture was replaced with PBS for imaging using a high content automated imaging system (ArrayScan VTI from Thermo/Fisher) using a Texas Red filter set.

fixed cells = conditions: cited from earlier work
dead cells = conditions: dead cell identification; cited from earlier work
Jurkat T cells = experiment: Imaging flow cytometry of stained Jurkat cells with camptothecin treatment; type: cell-based; conditions: 1 μM camptothecin, 4 hours
Method: Jurkat T cells were incubated in the presence or absence of 1 μM camptothecin (CPT) for 4 hours to induce apoptosis, then stained with 2.5 μM Compound 7 for 15 minutes at room temperature and analyzed on an AMNIS ImageStream multispectral imaging flow cytometer. Gating on 10,000 collected events with intermediate brightfield (BF) area and high BF aspect ratio (width:height) was performed to distinguish single cells from debris and multi-cellular clumps. Cells with nuclear dye uptake were gated (R3) on the Intensity 180 plot. Cells untreated with camptothecin are shown in the top middle histogram of FIG. 3, with 8.0% stain positive (dead cells) as identified in the R3 gate. The positively stained cells show typical brightfield morphology of dead cells, while the cells negative (live cells) show typical brightfield morphology of live cells.
Cells treated with the apoptotic inducing agent camptothecin (FIG. 3B) (bottom middle histogram), with 68.4% stain positive as identified in the R3 gate. The positively stained cells show typical brightfield morphology of dead cells and stained nuclei typical of apoptosis and cell death that is condensed and fragmented, while the cells negative for staining (live cells) show typical brightfield morphology of live cells. […] Cells negative for stain show morphology typical of healthy cells.

SMILES: CC(C)[C@@H]1NC(=O)[C@H](C)OC(=O)[C@@H](C(C)C)NC(=O)[C@@H](C(C)C)OC(=O)[C@H](C(C)C)NC(=O)[C@H](C)OC(=O)[C@@H](C(C)C)NC(=O)[C@@H](C(C)C)OC(=O)[C@H](C(C)C)NC(=O)[C@H](C)OC(=O)[C@@H](C(C)C)NC(=O)[C@@H](C(C)C)OC1=O [valinomycin]
- killing of HeLa cells (HeLa cells; 15 μM valinomycin): less effective in killing HeLa cells
- killing of HeLa cells (HeLa cells; 120 μM valinomycin): effective in killing HeLa cell

SMILES: CCOc1ccc(-c2nc3ccc(-c4nc5ccc(N6CCN(C)CC6)cc5[nH]4)cc3[nH]2)cc1 [Hoechst 33342]
- nuclear counterstain labeling of HeLa cells (HeLa cells; untreated or valinomycin-treated cells): labeling both live and dead cells

SMILES: Cc1c2oc3c(C)c(N)cc(C(=O)N[C@@H]4C(=O)N[C@H](C(C)C)C(=O)N5CCC[C@H]5C(=O)N(C)CC(=O)N(C)[C@@H](C(C)C)C(=O)O[C@@H]4C)c3nc-2c(C(=O)N[C@@H]2C(=O)N[C@H](C(C)C)C(=O)N3CCC[C@H]3C(=O)N(C)CC(=O)N(C)[C@@H](C(C)C)C(=O)O[C@@H]2C)c(N)c1=O [Compound 7-AAD, 7-aminoactinomycin D]
- variability of DNA content cell cycle histogram (% CV of the G0G1 peak) (fixed cells): high degree of variability
- time of staining process to fully equilibrate (dead cells): about 30 minutes

SMILES: CC[C@@]1(O)C(=O)OCc2c1cc1n(c2=O)Cc2cc3ccccc3nc2-1 [camptothecin]
- cell death measurable by staining with Compound 7 (Jurkat T cells): induced significant cell death
